In patent US20250107999A1, “INJECTABLE FORMULATION CONTAINING ISOXAZOLINE DERIVATIVE” (LG CHEM, LTD., priority 2022, published 2025):

Columns and labels:
[1] = API stability in solution (solvent of Example 23, HPLC); format: physicochemical; conditions: 10 mg/ml API
Protocol: Therefore, in order to measure the content of the active form in the solution after preparing the injection, 10 mg/ml of API was dissolved using the solvent of Example 23, and the concentration and purity of the active API (Compound of Formula 2), which changed over time, were measured using HPLC until 60 minutes after dissolution.

[2] = Confirmation of API solubility according to solvent pH (24 hours, HPLC); format: physicochemical
[3] = test system: caspase; assay: Caspase inhibitory activity; format: biochemical
[4] = Change in content of active compound of Formula 2 over time according to solvent pH (FIG. 1); format: physicochemical
Protocol: In addition, after dissolving the API in solvents, the change in the content of the active compound of Formula 2 was measured over time.

| Peak Area Active ([1]; 30 min after mixing) | Peak Area Inactive ([1]; 30 min after mixing) [%] | Peak Area Active ([1]; 60 min after mixing) [%] | Peak Area Inactive ([1]; 60 min after mixing) [%] | solubility ([2]; acidic solvents with a pH of 4 or less) | solubility ([2]; basic solvents with a pH of 7.5 or more) | solubility ([2]; weakly acidic solvents with a pH of 6 or more) | conversion of compound of Formula 2 into compound of Formula 3 ([4]; acidic solvent) | conversion of compound of Formula 2 into compound of Formula 3 ([4]; basic solvent with a neutral pH or higher) | Structure (SMILES) | caspase inhibitory activity [3] |
| --- | --- | --- | --- | --- | --- | --- | --- | --- | --- | --- |
| about 95.5% | 4.33 | 94.18 | 5.59 | hardly soluble | well soluble | began to dissolve |  |  | CC(C)[C@@]1(C(=O)NC2CC(=O)OC2(O)CF)CC(c2nccc3ccccc23)=NO1 (stereo in doubt) [compound of Formula 1, (R)-N-((2S,3S)-2-(fluoromethyl)-2-hydroxy-5-oxotetrahydrofuran-3-yl)-5-isopropyl-3-(isoquinolin-1-yl)-4,5-dihydroisoxazol-5-carboxamide] |  |
|  |  |  |  |  |  |  |  |  | CC(C)[C@@]1(C(=O)N[C@@H](CC(=O)O)C(=O)CF)CC(c2nccc3ccccc23)=NO1 [compound of Formula 2] | active form |
|  |  |  |  |  |  |  | hardly produced | rapidly produced | CC(C)[C@@]1(C(=O)N[C@H](CC(=O)O)C(=O)CF)CC(c2nccc3ccccc23)=NO1 [compound of Formula 3] | does not show caspase inhibitory activity |
